Test [1] in a line: Decrease in nuclear foci in human DM1 fibroblast for 24 hrs by fluorescent in situ hybridization assay. It counts as functional.
A further test has as its target CDK12/Cyclin K (Homo sapiens, UniProt Q9NYV4). The test can be described thus: Inhibition of CDK12/cyclinK (unknown origin) using RBER-IRStide as substrate and in presence of ATP preincubated for 30 mins followed by addition of substrate measured after 1 hr by ADP-Glo reagent assay. In kind it is protein-complex assay.

The IC50 is the point on the concentration scale where inhibition reaches its midpoint.

CDK12/Cyclin K, sequence (O75909 whole entry): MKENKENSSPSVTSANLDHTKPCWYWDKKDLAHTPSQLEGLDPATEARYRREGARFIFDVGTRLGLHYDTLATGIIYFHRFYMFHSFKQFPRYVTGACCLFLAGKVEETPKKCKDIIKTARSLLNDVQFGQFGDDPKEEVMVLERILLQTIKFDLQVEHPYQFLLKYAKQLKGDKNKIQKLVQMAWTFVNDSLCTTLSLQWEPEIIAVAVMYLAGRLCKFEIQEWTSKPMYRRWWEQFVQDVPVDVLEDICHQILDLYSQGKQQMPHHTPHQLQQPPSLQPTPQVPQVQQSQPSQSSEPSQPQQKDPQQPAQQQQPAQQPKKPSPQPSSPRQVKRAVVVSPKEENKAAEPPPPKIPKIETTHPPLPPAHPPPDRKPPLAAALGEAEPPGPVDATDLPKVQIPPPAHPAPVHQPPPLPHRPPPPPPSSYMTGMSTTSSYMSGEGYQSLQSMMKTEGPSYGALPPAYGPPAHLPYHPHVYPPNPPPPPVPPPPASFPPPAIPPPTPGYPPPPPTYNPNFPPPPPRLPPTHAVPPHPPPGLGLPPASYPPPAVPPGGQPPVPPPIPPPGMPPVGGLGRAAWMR
CDK12/Cyclin K, sequence (Q9NYV4 whole entry): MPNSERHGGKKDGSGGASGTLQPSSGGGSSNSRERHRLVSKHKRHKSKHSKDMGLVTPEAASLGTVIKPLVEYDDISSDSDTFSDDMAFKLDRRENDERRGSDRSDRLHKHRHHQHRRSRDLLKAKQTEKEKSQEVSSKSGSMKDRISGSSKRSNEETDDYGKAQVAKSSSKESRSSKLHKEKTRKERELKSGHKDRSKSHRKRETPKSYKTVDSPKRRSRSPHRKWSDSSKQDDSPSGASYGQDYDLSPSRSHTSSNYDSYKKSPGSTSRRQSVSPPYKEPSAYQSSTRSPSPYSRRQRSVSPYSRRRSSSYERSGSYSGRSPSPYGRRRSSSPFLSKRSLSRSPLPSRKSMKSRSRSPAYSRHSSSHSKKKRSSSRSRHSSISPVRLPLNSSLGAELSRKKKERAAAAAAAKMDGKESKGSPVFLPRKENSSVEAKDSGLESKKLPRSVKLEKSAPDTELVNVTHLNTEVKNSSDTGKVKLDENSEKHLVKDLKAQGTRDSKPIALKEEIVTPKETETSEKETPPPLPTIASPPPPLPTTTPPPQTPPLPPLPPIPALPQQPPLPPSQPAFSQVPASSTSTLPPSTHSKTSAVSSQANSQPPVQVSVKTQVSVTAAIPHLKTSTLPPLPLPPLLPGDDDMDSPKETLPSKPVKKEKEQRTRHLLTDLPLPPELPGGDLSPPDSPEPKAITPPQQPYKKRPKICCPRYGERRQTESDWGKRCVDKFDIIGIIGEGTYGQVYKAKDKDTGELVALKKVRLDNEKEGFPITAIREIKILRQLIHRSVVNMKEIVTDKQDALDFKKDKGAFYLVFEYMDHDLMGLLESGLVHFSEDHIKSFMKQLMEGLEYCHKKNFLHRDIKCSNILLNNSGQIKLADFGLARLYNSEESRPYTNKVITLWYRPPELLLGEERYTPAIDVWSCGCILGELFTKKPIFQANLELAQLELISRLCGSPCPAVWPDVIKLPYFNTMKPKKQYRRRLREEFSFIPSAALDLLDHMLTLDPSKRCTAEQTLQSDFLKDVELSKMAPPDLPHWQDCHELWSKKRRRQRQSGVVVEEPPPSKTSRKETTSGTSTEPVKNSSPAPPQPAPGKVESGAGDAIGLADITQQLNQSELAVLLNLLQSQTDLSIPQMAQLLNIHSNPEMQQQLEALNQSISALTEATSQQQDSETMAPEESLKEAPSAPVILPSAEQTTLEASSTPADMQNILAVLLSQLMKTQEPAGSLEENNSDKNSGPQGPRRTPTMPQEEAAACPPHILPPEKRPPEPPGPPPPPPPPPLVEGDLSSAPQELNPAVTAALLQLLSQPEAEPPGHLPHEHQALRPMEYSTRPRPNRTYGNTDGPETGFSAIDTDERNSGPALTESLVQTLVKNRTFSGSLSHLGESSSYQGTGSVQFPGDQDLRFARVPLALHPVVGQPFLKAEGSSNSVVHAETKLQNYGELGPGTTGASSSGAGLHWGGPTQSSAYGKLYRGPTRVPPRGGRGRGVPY

With `C=CC(=O)Nc1ccc(C(=O)N2CCC(c3cc4c(-c5cnn6ncccc56)ccnc4[nH]3)C2)cc1` (stereo not drawn), the IC50 in test [1] is less than 1000 nM.

On to `CCC(=O)N1CCC[C@H]1C(=O)NCCc1cc2c(-c3cnn4ncccc34)ccnc2[nH]1`, for which half-maximal inhibition in test [1] (IC50) required 10000 nM.

In turn, `C=CC(=O)N1CCC[C@H]1C(=O)N1CC[C@@H](c2cc3c(-c4cnn5ncccc45)ccnc3[nH]2)C1` returned an IC50 in test [1] of less than 1000 nM.

In turn, `Cc1cc2c(-c3cnn4ncccc34)ccnc2[nH]1` gave an IC50 in test [1] of less than 1000 nM.

As to `C#CC(=O)Nc1cccc(C(=O)N2CCC(c3cc4c(-c5cnn6ncccc56)ccnc4[nH]3)C2)c1` (stereo not drawn), the IC50 in test [1] was less than 1000 nM.

In test [1], `CNC(=O)c1cc2c(-c3cnn4ncccc34)ccnc2[nH]1` came in with a 50% inhibitory concentration (IC50) of 1000 nM.

`CN(C)C/C=C/C(=O)Nc1ccc(C(=O)N2CCC(c3cc4c(-c5cnn6ncccc56)ccnc4[nH]3)C2)cc1` (stereo not drawn) came in with an IC50 in test [1] of less than 1000 nM.

On to `C=CC(=O)N1CC(C(=O)NCCc2cc3c(-c4cnn5ncccc45)ccnc3[nH]2)C1`, for which the IC50 in test [1] was 1000 nM.

The compound `C=CC(=O)Nc1ccc(C(=O)NCCc2cc3c(-c4cnn5ncccc45)ccnc3[nH]2)cc1` showed an IC50 in test [1] of less than 1000 nM.

`C=CC(=O)N1CCC1C(=O)NCCc1cc2c(-c3cnn4ncccc34)ccnc2[nH]1` (single isomer, unassigned) displayed an IC50 in test [1] of less than 1000 nM.

Turning to `O=C(CCl)Nc1cccc(C(=O)N2CC[C@@H](c3cc4c(-c5cnn6ncccc56)ccnc4[nH]3)C2)c1`, the IC50 in test [1] is less than 1000 nM.

`C=CC(=O)Nc1cccc(C(=O)N2CCN(Cc3cc4c(-c5cnn6ncccc56)ccnc4[nH]3)CC2)c1`: the IC50 in test [1] was 1000 nM.

In test [1], `c1cnn2ncc(-c3ccnc4[nH]ccc34)c2c1` returned a 50% inhibitory concentration (IC50) of less than 1000 nM.

Take `CC#CC(=O)N1CCC[C@H]1C(=O)NCCc1cc2c(-c3cnn4ncccc34)ccnc2[nH]1`: inhibition in test [1] was half-maximal at 1000 nM (IC50).

Consider `C=CC(=O)N1C[C@H](F)C[C@H]1C(=O)NCCc1cc2c(-c3cnn4ncccc34)ccnc2[nH]1`, for which the 50% inhibitory concentration (IC50) in test [1] was less than 1000 nM.

The compound `CN(C)C/C=C/C(=O)Nc1cccc(C(=O)NCCc2cc3c(-c4cnn5ncccc45)ccnc3[nH]2)c1` had an IC50 in test [1] of 10000 nM.

`COc1ccc2c(-c3ccnc4[nH]ccc34)cnn2n1` had an IC50 in test [1] of 10000 nM.

Consider `C=CC(=O)N1CCC[C@H]1C(=O)N1CCN(Cc2cc3c(-c4cnn5ncccc45)ccnc3[nH]2)CC1`, for which the IC50 in test [1] was 10000 nM.

`C=CC(=O)N1CCCC[C@H]1C(=O)NCCc1cc2c(-c3cnn4ncccc34)ccnc2[nH]1` came in with a 50% inhibitory concentration (IC50) in test [1] of 1000 nM.

For `C=CC(=O)N1CCC[C@H](C(=O)NCCc2cc3c(-c4cnn5ncccc45)c(Cl)cnc3[nH]2)C1`, half-maximal inhibition in test [1] (IC50) required 1000 nM.

`c1ccc(Cc2cc3c(-c4cnn5ncccc45)ccnc3[nH]2)cc1` had an IC50 in test [1] of 10000 nM.

In turn, `CN(C)C/C=C/C(=O)N1CCC[C@H]1C(=O)NCCc1cc2c(-c3cnn4ncccc34)ccnc2[nH]1` had an IC50 in test [1] of 10000 nM.

In turn, `C=CC(=O)N1CC2(CC2)C[C@H]1C(=O)NCCc1cc2c(-c3cnn4ncccc34)ccnc2[nH]1` displayed a half-maximal inhibitory concentration (IC50) in test [1] of 1000 nM.

Consider `C=CC(=O)Nc1cccc(C(=O)NCCc2cc3c(-c4cnn5ncccc45)ccnc3[nH]2)c1`, for which the IC50 in test [1] was less than 1000 nM.

Turning to `C=CC(=O)N1CCC[C@H]1C(=O)NCCc1cc2c(-c3cnn(C)c3)ccnc2[nH]1`, the IC50 in test [1] was 10000 nM.

`CC(C)(CCl)C(=O)N1CCC[C@H]1C(=O)NCCc1cc2c(-c3cnn4ncccc34)ccnc2[nH]1` had an IC50 in test [1] of 10000 nM.

Consider `C=CC(=O)N1CCC[C@H]1C(=O)NCCc1cc2c(-c3cnn4ncccc34)ccnc2[nH]1`, for which the IC50 in test [1] was less than 1000 nM.

Regarding `C=CC(=O)Nc1ccc(C(=O)NCc2cc3c(-c4cnn5ncccc45)ccnc3[nH]2)cc1`, the IC50 in test [1] was 1000 nM.

As for `C[C@@H](Cl)C(=O)N1CCC[C@@H]1C(=O)N1CCC(c2cc3c(-c4cnn5ncccc45)ccnc3[nH]2)C1` (stereo partly drawn), inhibition in test [1] was half-maximal at 1000 nM (IC50).

In test [1], `C=CC(=O)Nc1cc(C(=O)N2CCC(c3cc4c(-c5cnn6ncccc56)ccnc4[nH]3)C2)ccc1OC` (stereo not drawn) came in with an IC50 of less than 1000 nM.

With `O=C(CCl)Nc1cccc(C(=O)N2CC[C@H](c3cc4c(-c5cnn6ncccc56)ccnc4[nH]3)C2)c1`, the IC50 in test [1] was less than 1000 nM.

In turn, `CN(C)C/C=C/C(=O)N1CCC(CC(=O)N2CCC(c3cc4c(-c5cnn6ncccc56)ccnc4[nH]3)C2)CC1` (stereo not drawn) registered an IC50 in test [1] of 10000 nM.

As for `C=C(C)C(=O)N1CCC[C@H]1C(=O)NCCc1cc2c(-c3cnn4ncccc34)ccnc2[nH]1`, inhibition in test [1] was half-maximal at 10000 nM (IC50).

`CC(C)=CC(=O)N1CCC[C@H]1C(=O)NCCc1cc2c(-c3cnn4ncccc34)ccnc2[nH]1`: the IC50 in test [1] is 1000 nM.

For the compound `CN(C)C/C=C/C(=O)N1CC[C@@H](OCC(=O)N2CCC(c3cc4c(-c5cnn6ncccc56)ccnc4[nH]3)C2)C1` (stereo partly drawn), it took 1000 nM to reach half-maximal inhibition in test [1] (IC50).

In test [1], `C=CC(=O)Nc1cccc(C(=O)N2CCC(c3cc4c(-c5cnn6ncccc56)ccnc4[nH]3)C2)c1` (stereo not drawn) yielded an IC50 of less than 1000 nM.

Turning to `C=CC(=O)Nc1ccc(C(=O)N2CCN(Cc3cc4c(-c5cnn6ncccc56)ccnc4[nH]3)CC2)cc1`, half-maximal inhibition in test [1] (IC50) was put at 1000 nM.

`C=CC(=O)N1CCC[C@H](C(=O)NCCc2cc3c(-c4cnn5ncccc45)ccnc3[nH]2)C1` showed an IC50 in test [1] of less than 1000 nM.

As for `c1cc(-c2ccc3cn[nH]c3c2)c2cc[nH]c2n1`, in test [1], inhibition was half-maximal at 10000 nM (IC50).

In test [1], `NC(=O)c1cc2c(-c3cnn4ncccc34)ccnc2[nH]1` yielded a half-inhibitory concentration (IC50) of 1000 nM.

As for `c1cnn2ncc(-c3ccnc4[nH]c(CN5CCNCC5)cc34)c2c1`, the concentration for half-maximal inhibition (IC50) on CDK12/Cyclin K is not below 1000 nM.

With `C/C=C/C(=O)N1CCC[C@H]1C(=O)NCCc1cc2c(-c3cnn4ncccc34)ccnc2[nH]1`, in test [1], the IC50 stood at 1000 nM.

In test [1], `C=CC(=O)N1CCC[C@@H]1C(=O)NCCc1cc2c(-c3cnn4ncccc34)c(Cl)cnc2[nH]1` returned an IC50 of less than 1000 nM.

For the compound `C=CC(=O)Nc1ccc(C(=O)N2CCC(c3cc4c(-c5c[nH]c6ccccc56)ccnc4[nH]3)C2)cc1` (stereo not drawn), the IC50 in test [1] was 1000 nM.

Consider `O=C(CCl)Nc1ccc(C(=O)N2CCC(c3cc4c(-c5cnn6ncccc56)ccnc4[nH]3)C2)cc1` (stereo not drawn), for which, in test [1], the IC50 is less than 1000 nM.

In test [1], `OCc1cc2c(-c3cnn4ncccc34)ccnc2[nH]1` registered a 50% inhibitory concentration (IC50) of 1000 nM.

`C=CC(=O)N1CCOC[C@@H]1C(=O)NCCc1cc2c(-c3cnn4ncccc34)ccnc2[nH]1`: the IC50 in test [1] was less than 1000 nM.

In turn, `N#CN1CCC[C@H](C(=O)NCCc2cc3c(-c4cnn5ncccc45)ccnc3[nH]2)C1` gave an IC50 in test [1] of 1000 nM.

On to `c1cc(-c2ccc3[nH]nnc3c2)c2cc[nH]c2n1`, for which the IC50 in test [1] is 10000 nM.

Take `C=CC(=O)NC(C)C(=O)NCCc1cc2c(-c3cnn4ncccc34)ccnc2[nH]1` (stereo not drawn): inhibition in test [1] was half-maximal at 1000 nM (IC50).

Turning to `O=C(CCl)Nc1cccc(C(=O)N2CCC(c3cc4c(-c5cnn6ncccc56)ccnc4[nH]3)C2)c1` (stereo not drawn), the IC50 in test [1] is less than 1000 nM.

For the compound `C=CC(=O)N1CCC[C@@H]1C(=O)NCCc1cc2c(-c3cnn4ncccc34)ccnc2[nH]1`, the IC50 in test [1] was less than 1000 nM.

Compound `C=CC(=O)NC(Cc1ccccc1)C(=O)NCCc1cc2c(-c3cnn4ncccc34)ccnc2[nH]1` (stereo not drawn) showed an IC50 in test [1] of 1000 nM.

With `O=C([C@H]1CCCN1C(=O)CCl)N1CCC(c2cc3c(-c4cnn5ncccc45)ccnc3[nH]2)C1` (stereo partly drawn), the IC50 in test [1] is less than 1000 nM.

Regarding `C=CC(=O)Nc1cccc(C(=O)N2CC[C@H](c3cc4c(-c5cnn6ncccc56)ccnc4[nH]3)C2)c1`, in test [1], the IC50 is less than 1000 nM.

Regarding `CN(C)C/C=C/C(=O)N1CCC[C@@H](C(=O)N2CCC(c3cc4c(-c5cnn6ncccc56)ccnc4[nH]3)C2)C1` (stereo partly drawn), half-maximal inhibition in test [1] (IC50) was put at 1000 nM.

In test [1], `C=CC(=O)N1CCC[C@H]1C(=O)OCCc1cc2c(-c3cnn4ncccc34)ccnc2[nH]1` displayed an IC50 of less than 1000 nM.

On to `C=CC(=O)N1CCC[C@@H](C(=O)NCCc2cc3c(-c4cnn5ncccc45)ccnc3[nH]2)C1`, for which the IC50 in test [1] turned out to be 1000 nM.

The values are drawn from ChEMBL document CHEMBL4742398, “Heterocyclyl substituted pyrrolopyridines that are inhibitors of the cdk12 kinase” (2019).
